{
  "source": "patent US10450327B2",
  "about": "“Epidithiodioxopiperazine compound or its derivatives, and the use thereof” (priority 2011, dated 2019)",
  "key": {"VEGFR2 and ERK": {"test_system": "VEGFR2 and ERK", "assay": "VEGF-induced signaling, immunoblot, PrxII knocked down HAECs", "format": "cell-based, human", "settings": "2 hours pretreatment, VEGF 10 minutes", "method": "The cells were rinsed with an ice-cold phosphate buffered saline (PBS) solution and then lysed in an extraction buffer solution containing 20 mM Hepes (pH 7.0), 1% Triton X-100, 150 mM NaCl, 10% glycerol, 1 mM EDTA, 2 mM EGTA, 1 mM DTT, 5 mM Na3VO4, 5 mM NaF, 1 mM AEBSF, aprotinin (5 μg/ml), and leupeptin (5 μg/ml). After being centrifuged at 12,000×g, the purified cell extracts were used for immunoblotting. In order to adjust the loading, the membranes were stripped by shaking them for 30 minutes at 60° C. in 67 mM Tris (pH 6.7), 2% SDS, and 100 mM 2-mercaptoethanol solution, and reprobed with an appropriate pan antibody.\nIn addition, the regulatory effects of GT on the PDGFRβ- and VEGFR2-mediated signaling pathway were examined. The GT treatment in HASMCs was quite different from PDGF-induced tyrosine phosphorylation that was enhanced by the PrxII knockdown (FIG. 12a). […] Conversely, the GT treatment in HAECs restored the VEGF-dependent activation of VEGFR2 and ERK that had been diminished by the PrxII knockdown (FIG. 12b). The effects of GT in vascular cell fuction were further validated.\nLastly, the effects of GT, a representative ETP compound, on vascular cells were compared with the effects of other compounds known as anti-oxidant compounds such as N-acetylcysteine or butylated hydroxyanisole, and the results are shown in FIG. 33. Immunoblotting was performed by pretreating HAECs in which PrxII was knocked down by injecting siRNA with each compound at the concentrations indicated in the graphs for two hours, and then treating with VEGF for 10 minutes. […] These comparative experiments led the inventors of the present invention to conclude that the distinguished […] function of the ETP compounds is clearly due to the PrxII-analogous activity, and additionally to the special chemical property of the dithioketopiperazine ring."}, "[1]": {"test_system": "human aortic smooth muscle cells (HASMCs)", "assay": "Cytotoxicity (cell viability), HASMCs", "format": "cell-based", "settings": "compared with gliotoxin and A1 to A9", "method": "(§1) Most ETP compounds have been known to be cytotoxic to animal cells. Accordingly, the inventors of the present invention determined a safe concentration range of the epidithiodioxopiperazine compound or its derivatives in vascular cells. For this, human aortic smooth muscle cells (HASMCs) and human aortic endothelial cells (HAECs) were pretreated for 2 hours with various concentrations of gliotoxin or chaetocin, and A1 to A9 that are ETP derivatives according to the present invention, and cultured in a fresh medium for 24 hours followed by cell viability assay (FIGS. 6 to 10)."}, "NADPH oxidase (NOX)": {"test_system": "NADPH oxidase (NOX)", "assay": "NADPH oxidase activity assay (whole cell superoxide production)", "format": "cell-based, human", "settings": "HASMCs with PDGF-B and HAECs with VEGF-A; until concentrations increased up to 500 nM", "method": "Whole cell superoxide production was measured using an enhanced luminescence system (Diogenes, National Diagnostics). For the assay, the serum-starved cells were pre-incubated with a 100 μl Diogene reagent at 37° C. for 5 minutes. After being stimulated by the indicated growth factor, chemiluminescence was detected every second for 10 minutes with a TD-20/20 Luminometer (Turner Biosystems).\nWhen HASMCs and HAECs were stimulated with PDGF-B and VEGF-A, respectively, the NOX activity increased approximately twofold. […] Thus, it was seen that these ETP compounds function as hydrogen peroxide reductase capable of replacing PrxII in both vascular cells, but the mechanism was not the inhibition of hydrogen peroxide producer NOX."}, "[2]": {"test_system": "human aortic endothelial cells (HAECs)", "assay": "Cytotoxicity (cell viability), HAECs", "format": "cell-based", "settings": "compared with gliotoxin and A1 to A9", "method": "as §1"}, "SK-MEL28 melanoma cells": {"test_system": "SK-MEL28 melanoma cells", "format": "cell-based, human", "settings": "at a concentration of 100 nM; tested 0, 100, 200, 500 and 1000 nM", "method": "Specifically, after chaetocin and chetomin was treated with SK-MEL28 melanoma cells at different concentrations (0, 100, 200, 500 and 1000 nM), the cell viability was checked, and the result is shown in FIG. 54A."}, "[3]": {"test_system": "yeast thioredoxin (Trx) / yeast thioredoxin reductase (TR) system", "assay": "Peroxidase activity assay (hydrogen peroxide reduction), Trx/TR system", "format": "biochemical", "method": "(§2) The peroxidase activity assay for the epidithiodioxopiperazine derivatives according to the present invention (hereinafter, referred to as ETP compounds) was performed according to known methods [Korean Patent No. 10-0953326]. A standard peroxidase reaction for spectrophotometric assay was carried out using a 200 μl reaction mixture of 1 mM EDTA-containing 50 mM Hepes-NaOH buffer solution (pH 7.0) including 250 μM NADPH, 3 μM yeast thioredoxin (Trx), 1.5 μM yeast thioredoxin reductase (TR), 25 μM ETP compound and […] of hydrogen peroxide. For the comparison with a glutathione (GSH)-dependent peroxidase reaction, GSH (1 mM) and yeast glutathione reductase (GSH reductase; GR) (1 Unit) were added instead of yeast Trx and TR. Each reaction was initiated by adding hydrogen peroxide, and the NADPH oxidation was monitored for 12 minutes at 30° C. according to absorbance decrease at 340 nm using an Agilent UV8453 spectrophotometer (Hewlett Packard, USA). The initial reaction rate was calculated using the linear portion of the curve and expressed as the amount of NADPH oxidized per minute.\nThe chemical feature of the epidithiodioxopiperazine compound of the present invention or its derivatives is the intramolecular disulfide bridge present in the epidithiodioxopiperazine ring moiety. Cellular peroxidase reduces hydrogen peroxide utilizing the electrons derived from NADPH via two electron-transfer routes, that is, Trx/TR or GSH/GR, therefore, spectrophotometric assay was performed for the hydrogen peroxide-reducing activity in the presence of each system, and the results are shown in FIGS. 1 to 5."}, "B16F10 melanoma cells": {"test_system": "B16F10 melanoma cells", "assay": "Metastasis of B16F10 melanoma cells to lung in mouse", "format": "in vivo", "settings": "i.p. 5 times over 10 days after i.v. injection of B16F10 cells", "method": "After B16F10 cells were temporarily transfected with PrxII siRNA for 24 hours and trypsinized, the cells were resuspended in a Hank's balanced salt solution (HBSS). The cell suspension was injected by intravenous injection to a C57/BL6 mouse (1×10^6 cells per mouse). The mouse was sacrified after 10 days, and the lung was removed after transcardia perfusion-fixation with a heparinized saline solution including 3.7% formaldehyde. The removed lung was paraffin embedded and sectioned using a rotary microtome (Leica RM2255). Two serial tissue sections (4 μm in thickness) were stained with haematoxylin and eosin. The melanoma tumor nodules metastasized from the surface of the lung and the HE-stained tissue sections were counted. In order to verify the effects of gliotoxin (GT), chaetocin and chetomin, the melanoma cells were intravenously injected to the C57/BL6 mouse, and then gliotoxin (300 mg/kg) was intraperitoneally injected for 5 times over 10 days."}, "[4]": {"test_system": "GSH / yeast glutathione reductase (GR) system", "assay": "Peroxidase activity assay (hydrogen peroxide reduction), GSH/GR system", "format": "biochemical", "settings": "25 μM ETP compound, GSH 1 mM, GR 1 Unit", "method": "as §2\nThe chemical feature of the epidithiodioxopiperazine compound of the present invention or its derivatives is the intramolecular disulfide bridge present in the epidithiodioxopiperazine ring moiety. […]"}, "SK-MEL-28 (SK28) cells": {"test_system": "SK-MEL-28 (SK28) cells", "assay": "Melanoma proliferation and migration assay, SK28", "format": "cell-based, human", "settings": "100 nM, 1 hour pretreatment", "method": "The extent of cell proliferation was measured using a WST-1 cell proliferation assay kit (Roche Diagnostics, USA) according to the protocol of the manufacturer. The number of cells was expressed as an absorbance value at 450 nm averaged from 3 wells after subtracting the turbidity at 600 nm. The chemotactic transmigration assay was performed in a 24-well Transwell culture chamber (Costar; polycarbonate membrane insert with 8-μm pore size). The bottom of the insert was coated with gelatin B (1 mg/ml) and air-dried for 1 hour. Retroviruses or transfection complexes were treated to melanoma cells (6×10^3). After 24 hours, the infected or transfected melanoma cells were serum-starved for 18 hours. A 20% FBS solution was added to bottom chambers including a basal medium containing 0.5% BSA. The upper chamber wells were each filled with a basal medium including 0.5% BSA. The Transwell chamber was incubated for 12 hours in a 37° C./5% CO2 incubator. After the incubation, the non-migrating cells at the top of the filter were removed. The cells that migrated onto the bottom of filter were fixed and stained with 0.6% hematoxylin and 0.5% eosin. The stained cells were photographed and counted. The number of migrating cells was averaged from 3 wells. […]"}},
  "data": [
    {"compound": "CC(=O)N[C@@H](CS)C(=O)O", "note": "[N-acetylcysteine]", "values": [
      {"measurement": "VEGF-dependent activation of VEGFR2 and ERK", "setting": "VEGFR2 and ERK", "result": "did not induce"}
    ]},
    {"compound": "COc1ccc(O)c(C(C)(C)C)c1", "note": "[butylated hydroxyanisole]", "values": [
      {"measurement": "VEGF-dependent activation of VEGFR2 and ERK", "setting": "VEGFR2 and ERK", "result": "did not induce"}
    ]},
    {"compound": "CN1C(=O)[C@@]23C[C@]4([C@]56C[C@@]78SS[C@@](CO)(C(=O)N7[C@H]5Nc5ccccc56)N(C)C8=O)c5ccccc5N[C@@H]4N2C(=O)[C@]1(CO)SS3", "note": "[chaetocin]", "values": [
      {"measurement": "relative toxicity to HASMCs", "setting": "[1]", "result": "relatively less toxic"},
      {"measurement": "NOX activity", "setting": "NADPH oxidase (NOX)", "result": "did not inhibit"},
      {"measurement": "relative toxicity to HAECs", "setting": "[2]", "result": "relatively less toxic"},
      {"measurement": "toxicity (cell viability)", "setting": "SK-MEL28 melanoma cells", "result": "toxicity was not shown"}
    ]},
    {"compound": "CN1C(=O)[C@]2(Cc3cn([C@]45C[C@@]67SS[C@@](CO)(C(=O)N6[C@H]4Nc4ccccc45)N(C)C7=O)c4ccccc34)SS[C@@]1(CO)C(=O)N2C", "note": "[chetomin]", "values": [
      {"measurement": "activity in the presence of a Trx/TR system relative to the activity of GT", "setting": "[3]", "result": "approximately two-fold higher"},
      {"measurement": "hydrogen peroxide-reducing activity in the presence of a Trx/TR system", "setting": "[3]; 25 μM ETP compound, 30° C., NADPH oxidation at 340 nm", "result": "8.62 ± 0.51", "unit": "nmol/min"},
      {"measurement": "metastasis of B16F10 melanoma cells to lung (tumor nodules)", "setting": "B16F10 melanoma cells", "result": "significantly reduced"},
      {"measurement": "hydrogen peroxide-reducing activity in the presence of a GSH/GR system", "setting": "[4]", "result": "2.53 ± 0.79", "unit": "nmol/min"},
      {"measurement": "toxicity (cell viability)", "setting": "SK-MEL28 melanoma cells", "result": "toxicity was not shown"},
      {"measurement": "proliferation and migration responding to serum stimulation, SK28", "setting": "SK-MEL-28 (SK28) cells", "result": "effectively impeded"}
    ]}
  ]
}
